In one experiment the test system is potato sprouting. The settings on record: in vivo; cited from earlier work.
The test system of the next experiment is liverwort. The experiment is described as follows: Liverwort control by spraying. Format: in vivo. Particulars: for contribution to phytotoxicity, in words: liverwort; for liverwort control, in words: sprayed on liverwort. The text has this:
The sinalbin had been hydrolyzed to undetectable levels.

Experiment [1] relates to weeds, vegetative cover, wheat, cotton. Particulars: cited from earlier work.

As to `N#C[S-].[K+]` [potassium thiocyanate (KSCN), potassium thiocyanate], in the experiment with potato sprouting, the “effect on potato sprouting, in words” value is listed as “promote potato sprouting”.

As for `OCc1ccc(O)cc1` [4-hydroxybenzyl alcohol], the “contribution to phytotoxicity, in words” value is “primary phytotoxic compounds” in the experiment with liverwort and “more phytotoxic that SCN^−” in the experiment with liverwort (listed as 4-OH benzyl alcohol). In the experiment on liverwort, the “liverwort control, in words” value was “did not control the liverwort as effectively as applying the extract”.

`N.N#CS` [ammonium thiocyanate (NH4SCN), ammonium thiocyanate]: in the experiment on potato sprouting, the “effect on potato sprouting, in words” value was “promote potato sprouting”.

On to `N#C[S-].[Na+]` [sodium thiocyanate (NaSCN), sodium thiocyanate], for which the “effect on potato sprouting, in words” value in the experiment on potato sprouting is “promote potato sprouting”.

With `N#CS` [SCN^−, ionic thiocyanate], the “contribution to phytotoxicity, in words” value in the experiment with liverwort was “minor contributor”. The “rate causing inhibition of wheat germination” value in experiment [1] (effect no longer observed at 69 days post application) is on record as 342 kilograms SCN^−/ha. Also, in experiment [1] (in vivo), the “rate necessary for complete plant kill for 4 months” value is reported as 1,366 kg SCN^−/ha and the “rate removing a large percentage of the weeds” value was 137 kilograms SCN^−/ha. Further, in experiment [1] (solutions sprayed directly on vegetative growth), the “rate at which cotton defoliation was possible” value is 8.6 kilograms SCN^−/ha.

On to `N#CCc1ccc(O)cc1` [4-hydroxyphenyl acetonitrile], for which, in the experiment with liverwort, the “contribution to phytotoxicity, in words” value is “primary phytotoxic compounds” and the “liverwort control, in words” value is “did not control the liverwort as effectively as applying the extract”. The “contribution to phytotoxicity, in words” value with liverwort (listed as nitrile) was “much more phytotoxic than SCN^−”.
